Literature values in patent US20140081110A1, “ELECTROPHYSIOLOGICAL DIAGNOSIS AND TREATMENT FOR ASTHMA” (University of Liverpool, priority 2011, published 2014).

Test system: normal airway
Conditions: UK guidance on asthma (British Guideline on the Management of Asthma, Revised January 2012)

## CC(=O)OC(C)C[N+](C)(C)C (stereo not shown) [methacholine]
  methacholine dose required to reduce the Forced Expiratory Volume in 1 Second (FEV1) by 20%: > 8 mg/mL
